According to patent US6610677B2, “Pyrazole compounds useful as protein kinase inhibitors” (Vertex Pharmaceuticals Incorporated, priority 2000, dated 2003):
Like-named read-outs stand apart in the source and are kept apart here.

How the values were obtained:
[1] = biological target: T1, human Src kinase (Homo sapiens, UniProt P12931); test: SRC inhibition assay (radioactivity-based or spectrophotometric assay); format: biochemical; details: assay A or B not specified
T1 construct: full length recombinant human Src kinase; purchased Upstate Biotechnology 14-117; host or cells: baculo viral cells (baculovirus expression system)
Protocol: The compounds were evaluated as inhibitors of human Src kinase using either a radioactivity-based assay or spectrophotometric assay. The compounds were assayed as inhibitors of full length recombinant human Src kinase (from Upstate Biotechnology, cat. no. 14-117) expressed and purified from baculo viral cells. […] P-0275). […] In a typical assay, all the reaction components with the exception of ATP were pre-mixed and aliquoted into assay plate wells. Inhibitors dissolved in DMSO were added to the wells to give a final DMSO concentration of 2.5%. The assay plate was incubated at 30° C. for 10 min before initiating the reaction with ^33P-ATP. After 20 min of reaction, the reactions were quenched with 150 μl of 10% trichloroacetic acid (TCA) containing 20 mM Na3PO4. The quenched samples were then transferred to a 96-well filter plate (Whatman, UNI-Filter GF/F Glass Fiber Filter, cat no. 7700-3310) installed on a filter plate vacuum manifold. Filter plates were washed four times with 10% TCA containing 20 mM Na3PO4 and then 4 times with methanol. 200 μl of scintillation fluid was then added to each well. The plates were sealed and the amount of radioactivity associated with the filters was quantified on a TopCount scintillation counter. The radioactivity incorporated was plotted as a function of the inhibitor concentration. The data was fitted to a competitive inhibition kinetics model to get the Ki for the compound. The ADP produced from ATP by the human recombinant Src kinase-catalyzed phosphorylation of poly Glu-Tyr substrate was quanitified using a coupled enzyme assay (Fox et al (1998) Protein Sci 7, 2249). In this assay one molecule of NADH is oxidised to NAD for every molecule of ADP produced in the kinase reaction. The disappearance of NADH can be conveniently followed at 340 nm. […] In a typical assay, all the reaction components with the exception of ATP were pre-mixed and aliquoted into assay plate wells. Inhibitors dissolved in DMSO were added to the wells to give a final DMSO concentration of 2.5%. […] The absorbance change at 340 nm with time, the rate of the reaction, was monitored on a molecular devices plate reader. The data of rate as a function of the inhibitor concentration was fitted to compettive inhibition kinetics model to get the Ki for the compound.

[2] = biological target: T2, GSK-3β (AA 1-420) (Homo sapiens, UniProt P49841); test: Ki determination for the inhibition of GSK-3 (coupled enzyme system); format: biochemical; details: 20 μM ATP, 300 μM peptide, 20 nM GSK-3β, 30° C
T2 construct: GSK-3β (AA 1-420)
In short: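 Pyruvate kinase/lactate dehydrogenase-coupled NADH assay with 20 nM GSK-3β (AA 1-420), 20 μM ATP, 300 μM phosphopeptide HSSPHQS(PO3H2)EDEEE in HEPES pH 7.5, 1.5% DMSO, 30 °C. Compound (12 points, 0.002–30 μM) preincubated 10 min before ATP start; Ki derived from 10-min rates versus inhibitor concentration.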

[3] = biological target: T3, Aurora-2 (Homo sapiens, UniProt O14965); test: Ki determination for the inhibition of Aurora-2 (coupled enzyme assay); format: biochemical; details: 70 nM Aurora-2, peptide LRRASLG, 30° C
T3 sequence (O14965 1-403): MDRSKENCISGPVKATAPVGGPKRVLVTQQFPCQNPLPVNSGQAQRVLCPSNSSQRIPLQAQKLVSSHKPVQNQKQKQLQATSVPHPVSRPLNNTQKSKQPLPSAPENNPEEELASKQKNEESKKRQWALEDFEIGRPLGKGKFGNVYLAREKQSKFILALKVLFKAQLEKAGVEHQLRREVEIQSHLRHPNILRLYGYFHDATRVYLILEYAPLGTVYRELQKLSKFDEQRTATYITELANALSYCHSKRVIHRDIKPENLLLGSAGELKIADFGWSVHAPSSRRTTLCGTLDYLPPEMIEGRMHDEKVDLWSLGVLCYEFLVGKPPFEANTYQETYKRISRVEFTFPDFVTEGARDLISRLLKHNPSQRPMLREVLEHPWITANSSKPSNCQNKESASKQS
In short: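 Ki came from reaction rates plotted against inhibitor concentration, with rates taken as A340 decrease over 5 min at 30° C. Enzyme (70 nM final) was added after 10 min compound preincubation; stock buffer held […], 800 μM LRRASLG, PK/LDH coupling, pH 7.5.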

T2 sequence (P49841 whole entry, the tested form may be a part): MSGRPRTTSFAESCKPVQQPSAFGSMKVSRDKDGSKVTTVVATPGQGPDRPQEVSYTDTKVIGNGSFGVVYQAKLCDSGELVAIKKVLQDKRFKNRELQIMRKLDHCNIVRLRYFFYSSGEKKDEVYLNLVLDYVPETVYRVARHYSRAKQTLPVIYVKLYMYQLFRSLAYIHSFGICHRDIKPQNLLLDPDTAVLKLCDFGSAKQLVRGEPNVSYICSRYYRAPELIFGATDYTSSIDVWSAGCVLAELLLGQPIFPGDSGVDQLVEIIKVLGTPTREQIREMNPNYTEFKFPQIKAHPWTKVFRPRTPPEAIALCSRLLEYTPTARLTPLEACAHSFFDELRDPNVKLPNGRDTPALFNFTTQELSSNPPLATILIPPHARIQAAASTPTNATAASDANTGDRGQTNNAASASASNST
T1 sequence (P12931 whole entry): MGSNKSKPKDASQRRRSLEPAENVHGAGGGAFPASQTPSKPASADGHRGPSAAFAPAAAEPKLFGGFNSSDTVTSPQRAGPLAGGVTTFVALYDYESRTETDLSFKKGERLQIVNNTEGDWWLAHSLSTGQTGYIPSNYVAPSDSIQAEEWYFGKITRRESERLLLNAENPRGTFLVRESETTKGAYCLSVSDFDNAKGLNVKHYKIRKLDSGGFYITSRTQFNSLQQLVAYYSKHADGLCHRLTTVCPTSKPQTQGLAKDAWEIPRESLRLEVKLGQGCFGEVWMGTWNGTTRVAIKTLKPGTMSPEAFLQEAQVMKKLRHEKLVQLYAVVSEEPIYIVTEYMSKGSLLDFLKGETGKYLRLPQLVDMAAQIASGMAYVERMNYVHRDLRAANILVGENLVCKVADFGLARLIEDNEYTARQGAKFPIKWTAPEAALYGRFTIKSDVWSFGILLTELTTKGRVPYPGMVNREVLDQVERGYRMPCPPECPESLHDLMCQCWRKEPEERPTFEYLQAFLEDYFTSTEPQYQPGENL

Row | Structure (SMILES) | Ki ([1]; read-out: Ki value on SRC) | Ki [2] | melting point | Ki [3] | Ki ([1]; read-out: Ki value for SRC)
1 | Cc1cc(Nc2nc(-c3ccccc3)nc3ccccc23)[nH]n1 [III-31, (5-Methyl-2H-pyrazol-3-yl)-(2-phenyl-quinazolin-4-yl)-amine] | < 0.1 µM | < 0.1 µM |  | < 0.1 µM | 
2 | c1ccc2c(Nc3ccn[nH]3)nc(-c3ccncc3)nc2c1 [III-64, (2H-Pyrazol-3-yl)-(2-pyridin-4-yl-quinazolin-4-yl)-amine] |  | 0.1 to 1 µM | 285 to 286 °C | 0.1 to 1 µM | 
3 | Cc1cc(Nc2n[nH]c3ccccc23)nc(-c2ccccc2C(F)(F)F)n1 [II-19, (1H-Indazol-3-yl)-[6-methyl-2-(2-trifluoromethyl-phenyl)-pyrimidin-4-yl]-amine] |  | < 0.1 µM | 235 to 237 °C | 1 to 20 µM | 
4 | Brc1cn[nH]c1Nc1nc(-c2ccccc2)nc2ccccc12 [III-101, (4-Bromo-2H-pyrazol-3-yl)-(2-phenyl-quinazolin-4-yl)-amine] |  | 1 to 20 µM | 189 °C | 1 to 20 µM | 
5 | NCCCc1cc(Nc2nc(-c3ccccc3)nc3ccccc23)[nH]n1 [III-79, [5-(3-Aminoprop-1-yl)-2H-pyrazol-3-yl]-(2-phenyl-quinazolin-4-yl)-amine] |  |  | 205 to 207 °C | 1 to 20 µM | 1 to 6 µM
6 | Cc1cc(Nc2nc(N3CCN(C)CC3)nc3ccccc23)[nH]n1 [III-107, [2-(4-Methylpiperazin-1-yl)-quinazolin-4-yl]-(5-methyl-2H-pyrazol-3-yl)-amine] |  | 0.1 to 1 µM | 105 to 107 °C | 0.1 to 1 µM | 
7 | COCc1cc(Nc2nc(-c3ccccc3)nc3ccccc23)[nH]n1 [III-75, (5-Methoxymethyl-2H-pyrazol-3-yl)-(2-phenyl-quinazolin-4-yl)-amine] |  | < 0.1 µM | 190 to 191 °C | 0.1 to 1 µM | 
8 | COC(=O)c1cc(Nc2nc(-c3ccccc3)nc3ccccc23)[nH]n1 [III-73, (5-Methoxycarbonyl-2H-pyrazol-3-yl)-(2-phenyl-quinazolin-4-yl)-amine] |  | < 0.1 µM | 271 to 273 °C | 0.1 to 1 µM | 
9 | Cc1cc(Nc2nc(N3CCNCC3)nc3ccccc23)[nH]n1 [III-105, (5-Methyl-2H-pyrazol-3-yl)-(2-piperazin-1-yl-quinazolin-4-yl)-amine] |  | 0.1 to 1 µM | 179 to 181 °C | 0.1 to 1 µM | 
10 | N#Cc1cn[nH]c1Nc1nc(-c2ccccc2)nc2ccccc12 [III-103, (4-Cyano-2H-pyrazol-3-yl)-(2-phenyl-quinazolin-4-yl)-amine] |  | 1 to 20 µM | > 250 °C | 1 to 20 µM | 
11 | Cc1cc(Nc2nc(-c3ccc(I)cc3)nc3ccccc23)[nH]n1 [III-32, [2-(4-Iodophenyl)-quinazolin-4-yl]-(5-methyl-2H-pyrazol-3-yl)-amine] | < 0.1 µM |  |  | < 0.1 µM | 
12 | c1ccc(-c2nc(Nc3ncn[nH]3)c3ccccc3n2)cc1 [IX-154, (2-Phenyl-quinazolin-4-yl)-(2H-[1,2,4]triazol-3-yl)-amine] |  | 0.1 to 1 µM | 266 to 267 °C | 1 to 20 µM | 
13 | CC(C)(C)c1cc(Nc2nc(-c3ccccc3)nc3ccccc23)[nH]n1 [III-68, (5-tert-Butyl-2H-pyrazol-3-yl)-(2-phenyl-quinazolin-4-yl)-amine] |  | 1 to 20 µM | 136 to 137 °C | 1 to 20 µM | 
14 | Cc1cc(Nc2cc(-c3ccccc3)nc3ccccc23)n[nH]1 [Compound V-4, (5-Methyl-2H-pyrazol-3-yl)-(2-phenyl-quinolin-4-yl)-amine] |  | 1 to 20 µM | 242 to 244 °C | 0.1 to 1 µM | 
15 | Cc1cc(Nc2nc(N3CCC4(CC3)OCCO4)nc3ccccc23)[nH]n1 [III-112, [2-(1,4-Dioxa-8-aza-spiro[4,5]dec-8-yl)-quinazolin-4-yl]-(5-methyl-2H-pyrazol-3-yl)-amine] |  | 0.1 to 1 µM | 191 °C | < 0.1 µM | 
16 | CC(C)c1cc(Nc2nc(-c3ccccc3)nc3ccccc23)[nH]n1 [III-67, (5-Isopropyl-2H-pyrazol-3-yl)-(2-phenyl-quinazolin-4-yl)-amine] |  | < 0.1 µM | 218 to 219 °C | < 0.1 µM | 

The remaining lines, values ahead:

Row | Ki ([1]; read-out: Ki value on SRC) | Ki [2] | melting point | Ki [3] | Ki ([1]; read-out: Ki value for SRC) | Structure (SMILES)
17 | < 0.1 µM | 0.1 to 1 µM | 177 to 178 °C | < 0.1 µM |  | c1ccc(COCCCc2cc(Nc3nc(-c4ccccc4)nc4ccccc34)[nH]n2)cc1 [III-78, [5-(3-Benzyloxyprop-1-yl)-2H-pyrazol-3-yl]-(2-phenyl-quinazolin-4-yl)-amine]
18 | < 0.1 µM | < 0.1 µM | 164 to 165 °C | < 0.1 µM |  | OCCCc1cc(Nc2nc(-c3ccccc3)nc3ccccc23)[nH]n1 [III-76, [5-(3-Hydroxyprop-1-yl)-2H-pyrazol-3-yl]-(2-phenyl-quinazolin-4-yl)-amine]
19 | < 0.1 µM | 0.1 to 1 µM |  | < 0.1 µM |  | Cc1cc(Nc2nc(-c3ccc(N(C)C)cc3)nc3ccccc23)[nH]n1 [III-44, [2-(4-Dimethylaminophenyl)-quinazolin-4-yl]-(5-methyl-2H-pyrazol-3-yl)-amine]
20 |  | 0.1 to 1 µM | 123 °C | < 0.1 µM |  | Cc1cc(Nc2nc(N3CCC(O)CC3)nc3ccccc23)[nH]n1 [III-114, [2-(4-Hydroxypiperidin-1-yl)-quinazolin-4-yl]-(5-methyl-2H-pyrazol-3-yl)-amine]
21 | < 0.1 µM | < 0.1 µM |  | < 0.1 µM |  | C#Cc1ccc(-c2nc(Nc3cc(C)n[nH]3)c3ccccc3n2)cc1 [III-48, [2-(4-Ethynylphenyl)-quinazolin-4-yl]-(5-methyl-2H-pyrazol-3-yl)-amine]
22 |  | < 0.1 µM | 237 °C | < 0.1 µM |  | c1ccc2c(c1)CN(c1nc(Nc3cc(C4CC4)n[nH]3)c3ccccc3n1)C2 [III-116, (5-Cyclopropyl-2H-pyrazol-3-yl)-[2-(1,3-dihydro-isoindol-2-yl)-quinazolin-4-yl]-amine]
23 |  | 0.1 to 1 µM | > 300 °C | < 0.1 µM |  | Cc1cc(Nc2nc(-c3ccc(C(C)(C)C)cc3)nc3ccccc23)[nH]n1 [III-41, [2-(4-tert-Butylphenyl)-quinazolin-4-yl]-(5-methyl-2H-pyrazol-3-yl)-amine]
24 | < 0.1 µM | < 0.1 µM |  | < 0.1 µM |  | Clc1ccc(-c2nc(Nc3cc(C4CC4)n[nH]3)c3ccccc3n2)cc1 [III-42, [2-(4-Chlorophenyl)-quinazolin-4-yl]-(5-cyclopropyl-2H-pyrazol-3-yl)-amine]
25 | < 0.1 µM | < 0.1 µM |  | < 0.1 µM |  | Cc1cc(Nc2nc(-c3ccc(-c4ccccc4)cc3)nc3ccccc23)[nH]n1 [III-47, (2-Biphenyl-4-yl-quinazolin-4-yl)-(5-methyl-2H-pyrazol-3-yl)-amine]
26 |  | < 0.1 µM | 148 to 150 °C | < 0.1 µM |  | Cc1cc(Nc2nc(N3CCC(C)CC3)nc3ccccc23)[nH]n1 [III-106, [2-(4-Methylpiperidin-1-yl)-quinazolin-4-yl]-(5-methyl-2H-pyrazol-3-yl)-amine]
